Consider one compound from US20070082910A1, “Specific nad(p)h oxidase inhibitor” (Mitsubishi Pharma Corporation, priority 2003, published 2007).

This assay deals with p22^Phox. Nature of the assay: Effect on p22^Phox expression induced by oxidized LDL in HUVEC (RT-PCR). The class given is cell-based, human. Here is the method:
HUVEC was seeded in a 24-well collagen-coated plate. Compound A was added, and oxidized LDL (100 μg/mL) prepared from the blood obtained from normal healthy volunteers was added 24 hr later.
At 24 hr after the oxidized LDL addition, total RNA was […] extracted using MgExtractor (TOYOBO) and DNase I treatment (Nippon gene) was conducted.
The concentration of the total RNA was calculated by measuring absorbance (OD260) of a fraction therefrom.
Using the obtained total RNA (100 ng), RT (reverse transcription) reaction (ABI) was carried out to synthesis cDNA.
Using the synthesized cDNA (10 μL), PCR (polymerase chain reaction) was carried out (ABI), and expression amounts of p22^Phox which is a major component of NAD(P)H oxidase, and β-actin as an internal standard were measured.
The expression amount of p22^Phox was standardized to the expression amount of β-actin and expressed based on the expression amount of (p22^Phox)/( β-actin) of normal as 100%.

For the compound `C[C@@H](Nc1nnc(-c2ccccc2)c2ccccc12)C1CCCCC1.O=C(O)/C=C\C(=O)O` [compound A], the “p22^phox expression ((p22^Phox)/(β-actin), normal as 100%)” value (oxidized LDL 100 μg/mL + 0.1 μM compound, mean ± standard error) is reported as 116.64 ± 16.61 %. Where the note is “oxidized LDL addition”, the “p22^Phox expression relative to the normal group” value stood at 1.2 fold.
